Laboratory results as given in patent US9675072B2, “Tetrazolinone compound and application of same” (SUMITOMO CHEMICAL COMPANY, LIMITED, priority 2013, dated 2017).

Key:
Type in all cases: in vivo
[1] = tested on: wheat leaf blotch fungus (Septoria tritici); test: Wheat leaf blotch control test, foliage spray on wheat; conditions: Test Example 11; 200 ppm foliage spray; wheat (APOGEE); inoculated 4 days after spraying
[2] = tested on: rice blast fungus (Magnaporthe grisea); conditions: Test Example 7; 200 ppm foliage spray; rice (NIHONBARE); 6 days in contact with infected seedlings
[3] = tested on: wheat rust fungus (Puccinia recondita); test: Wheat rust control test, foliage spray on wheat; conditions: Test Example 8; 200 ppm foliage spray; wheat (SHIROGANE); inoculated 5 days after spraying
Description: (§1) The control effect was evaluated by visually observing the area of lesion spots on each of test plants at the time of investigation, and comparing the area of lesion spots on a plant treated with the present control agent with that on an untreated plant. The untreated plant is a plant tested under the same conditions as in Test Examples, except that foliage application of a diluted solution of a formulation containing the present compound with water is not performed.
Each of plastic pots was filled with sandy loam and wheat (cultivar: SHIROGANE) was sowed and grown in a greenhouse for 9 days. Each of the present compounds 1 to 5, 11, and 1 was diluted with water to adjust to a predetermined concentration of 500 ppm. The obtained diluted solution was sprayed over stems and leaves of the wheat so that they sufficiently adhered to the surface of the leaves of the wheat. After spraying, the plant was air-dried and cultivated at 20° C. for 5 days under illumination, and then inoculated by sprinkling with spores of wheat rust fungus (Puccinia recondita). After the inoculation, the plant was left to stand at 23° C. for one day under dark and high humidity condition, and cultivated under illumination at 20° C. for 8 days, and then the area of lesion spots was investigated. […]

[4] = tested on: barley net blotch fungus (Pyrenophora teres); test: Barley net blotch control test, foliage spray on barley; conditions: barley (MIKAMO GOLDEN), inoculated 2 days after spraying
Description: as §1
Each of plastic pots was filled with sandy loam and barley (cultivar: MIKAMO GOLDEN) was sowed and grown in a greenhouse for 7 days. Each of the present compounds 1 to 8, 10 to 12, and 14 was diluted with water to adjust to a predetermined concentration of 500 ppm. The obtained diluted solution was sprayed over stems and leaves of the barley so that it sufficiently adhered to the surface of the leaves of the barley. After spraying, the plant was air-dried. After 2 days, an aqueous suspension containing spores of barley net blotch fungus (Pyrenophora teres) was sprayed to inoculate the spores. After completion of the inoculation, the plant was left to stand for 3 days in a greenhouse at 23° C. in the daytime and 20° C. at night under high humidity condition and cultivated in a greenhouse for 7 days, and then the area of lesion spots was investigated. […]

[5] = tested on: cucumber powdery mildew fungus (Sphaerotheca fuliginea, a QoI-resistant strain, cytochrome b position 143 glycine to alanine); test: Cucumber powdery mildew control test, foliage spray on cucumber; conditions: Test Example 6, 500 ppm foliage spray, cucumber (SAGAMI HANJIRO), 8 days after inoculation

COc1c(C(F)F)c(-c2ccc(OCc3ccccc3-n3nnn(C)c3=O)c(C)c2)nn1C [compound 9]
≤ 30%: area of lesion spots on treated plant relative to untreated plant [1]

COc1cc(-c2cc(C)c(OCc3ccccc3-n3nnn(C)c3=O)cc2C)nn1C [compound 14]
≤ 30%: lesion area on treated plant with respect to the lesion area on the non-treated plant [2] | area of lesion spots on treated plant relative to untreated plant [3] | area of lesion spots on treated plant relative to untreated plant ([4]; Test Example 3, 500 ppm foliage spray) | area of lesion spots on treated plant relative to untreated plant ([4]; Test Example 9, 200 ppm foliage spray) | area of lesion spots on treated plant relative to untreated plant [5]
